Measurements taken from PubChem BioAssay AID252 (DTP/NCI, 2004).
Where “and” joins values, the source holds several entries; their conditions need not be identical. Equal values may be shown once. Inconclusive results and toxic doses are left out.

Test system: BDF1 mice, intracerebral L1210 leukemia, survival T/C
Assay: NCI In Vivo Anticancer Drug Screen. Data for tumor model L1210 Leukemia (intracerebral) in B6D2F1 (BDF1) mice
Conditions: higher = longer survival
Outline: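 Antitumour effect is judged in mice with transplanted tumour by comparing survival of treated (T) against vehicle-dosed (C) groups as T/C.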

`O=C(NC1=C(N2CC2)C(=O)C(NC(=O)OCCO)=C(N2CC2)C1=O)OCCO` was tested, and the T/C (endpoint: median survival time, dose: 0.18 mg/kg/injection, schedule: Q01DX009 (ip), vehicle: saline) was 100 % of control, the T/C (endpoint: median survival time, dose: 0.39 mg/kg/injection, schedule: Q01DX009 (ip), vehicle: saline) was 97 % of control and the T/C (endpoint: median survival time, dose: 0.75 mg/kg/injection, schedule: Q01DX009 (ip), vehicle: saline) was 96 % of control and 97 % of control. For the same compound, the T/C (endpoint: median survival time, dose: 1.5 mg/kg/injection, schedule: Q01DX009 (ip), vehicle: saline) was 91 % of control and 100 % of control, the T/C (endpoint: median survival time, dose: 3.0 mg/kg/injection, schedule: Q01DX009 (ip), vehicle: saline) was 108 % of control and 101 % of control and the T/C (endpoint: median survival time, dose: 6.0 mg/kg/injection, schedule: Q01DX009 (ip), vehicle: saline) was 122 % of control and 98 % of control.
In the case of `[N-]=[N+]=CC(=O)NCC(=O)NN`, the T/C (endpoint: mean survival time, dose: 300.0 mg/kg/injection, schedule: Q01DX Z (ip), vehicle: water) is reported as 101 % of control, the T/C (endpoint: mean survival time, dose: 400.0 mg/kg/injection, schedule: Q01DX Z (ip), vehicle: water) is reported as 87 % of control and the T/C (endpoint: mean survival time, dose: 500.0 mg/kg/injection, schedule: Q01DX Z (ip), vehicle: water) is reported as 87 % of control.
`CCn1cnc2c(SC(C)C)ncnc21` was tested, and the T/C (endpoint: mean survival time, dose: 16.0 mg/kg/injection, schedule: Q01DX Z (ip), vehicle: carboxymethylcellulose (CMC)) was 100 % of control, the T/C (endpoint: mean survival time, dose: 31.0 mg/kg/injection, schedule: Q01DX Z (ip), vehicle: carboxymethylcellulose (CMC)) was 109 % of control and the T/C (endpoint: mean survival time, dose: 62.0 mg/kg/injection, schedule: Q01DX Z (ip), vehicle: carboxymethylcellulose (CMC)) was 110 % of control.
For `O=NN(CCCl)C(=O)NC1CCC(NC(=O)N(CCCl)N=O)CC1` (configuration not stated), the T/C (endpoint: mean survival time, dose: 38.0 mg/kg/injection, schedule: Q01DX001 (oral), vehicle: other) was 119 % of control, the T/C (endpoint: mean survival time, dose: 48.0 mg/kg/injection, schedule: Q01DX001 (ip), vehicle: other) was 151 % of control and 157 % of control and the T/C (endpoint: mean survival time, dose: 84.0 mg/kg/injection, schedule: Q01DX001 (oral), vehicle: other) was 154 % of control. The T/C (endpoint: mean survival time, dose: 96.0 mg/kg/injection, schedule: Q01DX001 (ip), vehicle: other) was 276 % of control and 370 % of control, the T/C (endpoint: mean survival time, dose: 127.0 mg/kg/injection, schedule: Q01DX001 (ip), vehicle: carboxymethylcellulose (CMC)) was 232 % of control and the T/C (endpoint: mean survival time, dose: 171.0 mg/kg/injection, schedule: Q01DX001 (oral), vehicle: other) was 209 % of control. For the same compound, the T/C (endpoint: mean survival time, dose: 191.0 mg/kg/injection, schedule: Q01DX001 (ip), vehicle: other) was 291 % of control and 389 % of control, the T/C (endpoint: mean survival time, dose: 255.0 mg/kg/injection, schedule: Q01DX001 (ip), vehicle: carboxymethylcellulose (CMC)) was 307 % of control and the T/C (endpoint: mean survival time, dose: 319.0 mg/kg/injection, schedule: Q01DX001 (oral), vehicle: other) was 198 % of control and 260 % of control. For the same compound, the T/C (endpoint: mean survival time, dose: 383.0 mg/kg/injection, schedule: Q01DX001 (ip), vehicle: other) was 154 % of control, the T/C (endpoint: mean survival time, dose: 510.0 mg/kg/injection, schedule: Q01DX001 (ip), vehicle: carboxymethylcellulose (CMC)) was 154 % of control and the T/C (endpoint: mean survival time, dose: 638.0 mg/kg/injection, schedule: Q01DX001 (oral), vehicle: other) was 268 % of control and 398 % of control.
For `O=NN(CCCl)C(=O)NC1CS(=O)(=O)CS(=O)(=O)C1`, the T/C (endpoint: mean survival time, dose: 11.0 mg/kg/injection, schedule: Q01DX001 (ip), vehicle: other) was 118 % of control, the T/C (endpoint: mean survival time, dose: 17.0 mg/kg/injection, schedule: Q01DX001 (ip), vehicle: other) was 117 % of control and the T/C (endpoint: mean survival time, dose: 56.0 mg/kg/injection, schedule: Q01DX001 (ip), vehicle: other) was 119 % of control.
With `O=NN(CCF)C(=O)NC1CCSCC1` the T/C (endpoint: mean survival time, dose: 3.7 mg/kg/injection, schedule: Q01DX001 (ip), vehicle: other) was 114 % of control and 123 % of control, the T/C (endpoint: mean survival time, dose: 15.0 mg/kg/injection, schedule: Q01DX001 (ip), vehicle: other) was 211 % of control and 223 % of control and the T/C (endpoint: mean survival time, dose: 24.0 mg/kg/injection, schedule: Q01DX001 (ip), vehicle: other) was 271 % of control. The T/C (endpoint: mean survival time, dose: 31.0 mg/kg/injection, schedule: Q01DX001 (ip), vehicle: other) was 460 % of control and 477 % of control, the T/C (endpoint: mean survival time, dose: 36.0 mg/kg/injection, schedule: Q01DX001 (ip), vehicle: other) was 276 % of control and the T/C (endpoint: mean survival time, dose: 54.0 mg/kg/injection, schedule: Q01DX001 (ip), vehicle: other) was 303 % of control. The T/C (endpoint: mean survival time, dose: 62.0 mg/kg/injection, schedule: Q01DX001 (ip), vehicle: other) was 380 % of control.
With `CC(=O)OCC1OC(n2cnc3c(=S)nc[nH]c32)C(OC(C)=O)C1OC(C)=O` (configuration not stated) the T/C (endpoint: mean survival time, dose: 25.0 mg/kg/injection, schedule: Q01DX Z (ip), vehicle: carboxymethylcellulose (CMC)) was 112 % of control and 117 % of control, the T/C (endpoint: mean survival time, dose: 100.0 mg/kg/injection, schedule: Q01DX Z (ip), vehicle: carboxymethylcellulose (CMC)) was 157 % of control and the T/C (endpoint: mean survival time, dose: 200.0 mg/kg/injection, schedule: Q01DX Z (ip), vehicle: carboxymethylcellulose (CMC)) was 121 % of control and 87 % of control.
